ChEMBL document CHEMBL5136985, “Natural and synthetic β-carboline as a privileged antifungal scaﬀolds” (Eur J Med Chem, 2022)
Values after ≈ are worked out from the molar mass of the structure shown.

How the values were obtained:
Alternaria solani = experiment: Antifungal activity against Alternaria solani relative to control; type: functional; set-up: concentration or dose not given beside the values
Bipolaris maydis = experiment: Antifungal activity against Bipolaris maydis relative to control; type: functional; set-up: concentration or dose not given beside the values
Candida albicans [1] = experiment: Antifungal activity against Candida albicans; type: functional, organism-based; details: for MIC: Candida albicans
Nakaseomyces glabratus = experiment: Antifungal activity against Candida glabrata; type: functional
Pichia kudriavzevii = experiment: Antifungal activity against Candida krusei; type: functional
Candida tropicalis = experiment: Antifungal activity against Candida tropicalis; type: functional
Kluyveromyces marxianus = experiment: Antifungal activity against Candida kefyr; type: functional
Cryptococcus neoformans = experiment: Antifungal activity against Cryptococcus neoformans; type: functional
Candida parapsilosis = experiment: Antifungal activity against Candida parapsilosis; type: functional; details: Lodderomyces parapsilosis
Rhizoctonia solani = experiment: Antifungal activity against Rhizoctonia solani; type: functional, organism-based
Candida albicans [2] = experiment: Antifungal activity against Candida albicans incubated for 24 hrs by well diffusion method; type: functional
[3] = system: Trichophyton interdigitale; experiment: Antifungal activity against Trichophyton interdigitale; type: functional
Sclerotinia [4] = experiment: Antifungal activity against rape Sclerotinia rot at 50 ug/ml relative to control; type: functional; details: for Activity: dose 50 µg/ml
Sclerotinia [5] = experiment: Antifungal activity against sunflower Sclerotinia rot at 50 ug/ml relative to control; type: functional; details: dose 50 µg/ml
Curvularia lunata = experiment: Antifungal activity against Curvularia lunata; type: functional, organism-based
Alternaria alternata = experiment: Antifungal activity against Alternaria alternata; type: functional
Cytospora mali = experiment: Antifungal activity against Valsa mali; type: functional
Alternaria brassicae = experiment: Antifungal activity against Alternaria brassicae; type: functional
[6] = system: Colletotrichum gloeosporioides; experiment: Antifungal activity against Colletotrichum gloeosporioides; type: functional
Sclerotinia sclerotiorum = experiment: Antifungal activity against Sclerotinia sclerotiorum; type: functional, organism-based
Fusarium solani = experiment: Antifungal activity against Fusarium solani; type: functional, organism-based
Phytophthora litchii = experiment: Antifungal activity against Phytophthora litchii assessed as inhibition of growth rate at 100 mg/L relative to control; type: functional
Gaeumannomyces graminis = experiment: Antifungal activity against Gaeumannomyces graminis; type: functional, organism-based
Aspergillus niger = experiment: Antifungal activity against Aspergillus niger assessed as inhibition of growth rate at 100 ug/ml by disc diffusion method relative to control; type: functional
Bipolaris oryzae = experiment: Antifungal activity against Helminthosporium oryzae assessed as inhibition of growth rate at 100 ug/ml by disc diffusion method relative to control; type: functional

Cc1nccc2c1[nH]c1cc(O)ccc12
Activity (Alternaria solani): 26.3%
Activity (Bipolaris maydis): 31.8%

Cc1nccc2c1[nH]c1ccc(Br)cc12
Activity (Alternaria solani): 73.7%
Activity (Bipolaris maydis): 86.4%

C[n+]1ccc2c3ccccc3n(-n3c4ccccc4c4cc[n+](C)cc43)c2c1.[I-].[I-]
EC50 (Candida albicans [1]): 0.5 uM/ml

c1ccc2c(c1)c1ccncc1n2-n1c2ccccc2c2ccncc21
EC50 (Candida albicans [1]): > 1 uM/ml

CCCCCCCC[C@@H]1N[C@H](C(=O)OC)Cc2c1[nH]c1ccccc21
MIC (Nakaseomyces glabratus): 23.7 µg/mL (≈ 69.1 µM)
MIC (Pichia kudriavzevii): > 94.7 µg/mL
MIC (Candida tropicalis): > 94.7 µg/mL
MIC (Kluyveromyces marxianus): 23.7 µg/mL (≈ 69.1 µM)
MIC (Candida albicans [1]): > 94.7 µg/mL
MIC (Cryptococcus neoformans): 14.8 µg/mL (≈ 43.2 µM)
MIC (Candida parapsilosis): > 94.7 µg/mL

CCCCCCCC[C@H]1N[C@H](C(=O)OC)Cc2c1[nH]c1ccccc21
MIC (Nakaseomyces glabratus): 3.67 µg/mL (≈ 10.7 µM)
MIC (Pichia kudriavzevii): 7.41 µg/mL (≈ 21.6 µM)
MIC (Candida tropicalis): 7.41 µg/mL (≈ 21.6 µM)
MIC (Kluyveromyces marxianus): 3.67 µg/mL (≈ 10.7 µM)
MIC (Candida albicans [1]): 14.8 µg/mL (≈ 43.2 µM)
MIC (Cryptococcus neoformans): 7.41 µg/mL (≈ 21.6 µM)
MIC (Candida parapsilosis): 14.8 µg/mL (≈ 43.2 µM)

COc1ccc(-c2nc(NC(=O)NC(=O)c3c(F)cccc3F)cc3c2[nH]c2ccccc23)cc1
EC50 (Rhizoctonia solani): 277 µg/mL (≈ 586 µM)

C=CCCCCCCCCCOC(=O)c1cc2c([nH]c3ccccc32)c(-c2ccc(OC)cc2)n1
MIC (Candida albicans [2]): 8.6 µg/mL (≈ 18.3 µM)
MIC (Candida albicans [1]): 8.6 µg/mL (≈ 18.3 µM)

CCCCCCCc1nccc2c1[nH]c1ccccc12
MIC [3]: 12.5 µg/mL (≈ 46.9 µM)

Fc1ccc(Cn2c3ccccc3c3ccnc(-c4nc5ccccc5[nH]4)c32)cc1
Activity (Sclerotinia [4]): 79.89%

Cc1nccc2c3ccccc3n(Cc3cn(-c4ccc(C(F)(F)F)cc4)nn3)c12
Activity (Sclerotinia [5]): 86.93%

C#CCn1c2ccccc2c2cc(C)ncc21
EC50 (Curvularia lunata): 6.73 µg/mL (≈ 30.6 µM)

CCCCCCc1nccc2c1[nH]c1ccccc12
MIC [3]: 25 µg/mL (≈ 99.1 µM)

Cc1nccc2c1[nH]c1cc(OC(=O)NC(C)C)ccc12
Activity (Alternaria solani): 21.1%
Activity (Bipolaris maydis): 22.7%

CCC(C)Cc1nccc2c1[nH]c1ccccc12 (stereo not drawn)
MIC [3]: 50 µg/mL (≈ 210 µM)

O=C1[C@@H]2Cc3c([nH]c4ccccc34)C(c3ccc(O)cc3)N2C(=O)[C@@H]2CCCN12 (stereo partly drawn)
MIC (Alternaria alternata): 12.5 µg/mL (≈ 32.3 µM)
MIC (Cytospora mali): 12.5 µg/mL (≈ 32.3 µM)
MIC (Alternaria brassicae): 6.25 µg/mL (≈ 16.1 µM)
MIC [6]: 12.5 µg/mL (≈ 32.3 µM)

c1ccc(C[C@@H]2COC(c3nccc4c3[nH]c3ccccc34)=N2)cc1
EC50 (Sclerotinia sclerotiorum): 12 µM

Cc1ccc2c(c1)c1c(n2C)C=[N+](c2ccc(F)cc2)CC1
EC50 (Fusarium solani): 5440 nM

Cc1cccc([N+]2=Cc3c(c4cc(C)ccc4n3C)CC2)c1
EC50 (Fusarium solani): 2670 nM

CCCCn1c2ccccc2c2ccnc(-c3nc4ccccc4[nH]3)c21
Activity (Sclerotinia [4]): 80.46%

c1ccc([C@@H]2COC(c3nccc4c3[nH]c3ccccc34)=N2)cc1
EC50 (Sclerotinia sclerotiorum): 17.3 µM

c1ccc(Cn2c3ccccc3c3ccnc(-c4nc5ccccc5[nH]4)c32)cc1
inhibition at 50 µg/mL (Sclerotinia [4]; Sclerotinia): 88.5%

O=C(Nc1ccccn1)c1cc2c([nH]c3ccccc32)c(-c2ccccc2)n1
inhibition at 100 µg/mL (Phytophthora litchii): 95.9%

CC(C)c1nc(C(N)=O)cc2c1[nH]c1ccccc12
EC50 (Gaeumannomyces graminis): 2850 nM

Cc1cccc([N+]2=Cc3c(c4ccccc4n3C)CC2)c1
EC50 (Fusarium solani): 3030 nM

O=C(O)c1cc2c([nH]c3ccccc32)c(-c2ccsc2)n1
EC50 (Sclerotinia sclerotiorum): 11.9 µM

COc1cc(C2NCCc3c2[nH]c2ccccc32)ccc1O (stereo not drawn)
inhibition at 100 µg/mL (Aspergillus niger): 21.6%
inhibition at 100 µg/mL (Bipolaris oryzae): 22.4%

c1ccc(-c2nc(-c3nnc(C4CC4)o3)cc3c2[nH]c2ccccc23)cc1
EC50 (Rhizoctonia solani): 4.2 µg/mL (≈ 11.9 µM)

COc1cc(-c2nc(NC(=O)Nc3ccc(C(F)(F)F)cc3)cc3c2[nH]c2ccccc23)cc(OC)c1OC
EC50 (Rhizoctonia solani): 281 µg/mL (≈ 524 µM)

Cc1nccc2c3ccccc3n(Cc3cn(-c4ccncc4)nn3)c12
Activity (Sclerotinia [5]): 84.47%

CC(C)Cc1nccc2c1[nH]c1ccccc12
MIC [3]: 100 µg/mL (≈ 446 µM)

Cc1nccc2c1[nH]c1ccc([N+](=O)[O-])cc12
Activity (Alternaria solani): 33.3%
Activity (Bipolaris maydis): 31.6%

Cc1cc2c3ccccc3n(C(C)C)c2cn1
EC50 (Curvularia lunata): 4.23 µg/mL (≈ 18.9 µM)

Cn1c2c(c3ccccc31)CC[N+](c1ccc(F)cc1)=C2
EC50 (Fusarium solani): 2180 nM

C=CCCCCCCCCCOC(=O)c1cc2c([nH]c3ccccc32)c(-c2ccc(O)cc2)n1
MIC (Candida albicans [2]): 2.8 µg/mL (≈ 6.13 µM)
MIC (Candida albicans [1]): 2.8 µg/mL (≈ 6.13 µM)

Cc1ccc2c(c1)c1c(n2C)C=[N+](c2ccc(Cl)cc2)CC1
EC50 (Fusarium solani): 2680 nM

COc1cc(-c2nc(NC(=O)NC(=O)c3c(F)cccc3F)cc3c2[nH]c2ccccc23)cc(OC)c1OC
EC50 (Rhizoctonia solani): 131 µg/mL (≈ 246 µM)

CCCCCc1nccc2c1[nH]c1ccccc12
MIC [3]: 50 µg/mL (≈ 210 µM)

COc1cc(C(=O)NC(=S)Nc2cc3c([nH]c4ccccc43)c(-c3cc(OC)c(OC)c(OC)c3)n2)cc(OC)c1OC
EC50 (Rhizoctonia solani): 293 µg/mL (≈ 486 µM)

Oc1ccccc1C1NCCc2c1[nH]c1ccccc21 (stereo not drawn)
inhibition at 100 µg/mL (Aspergillus niger): 21.2%
inhibition at 100 µg/mL (Bipolaris oryzae): 19.8%
